Laboratory results taken from patent publication US5817766A, “Reagents for a cannabinoid immunoassay” (Roche Diagnostic Systems, Inc., priority 1995, dated 1998).

Key:
MoAb 11E.2 = assay: MIRA assay ABUSCREEN 100 TEST ONLINE KIT for cannabinoids, MoAb 11E.2; type: binding, Murine; conditions: commercial MIRA assay; (II) = 100 by definition; IgA from immunization with (VIII) alone
Text: (§1) Table 2 below illustrates how a novel clone (11A6) derived by using the triple sequential immunization procedure described herein performs in an actual commercial MIRA (Roche Diagnostic Systems, Inc., Branchburg, N.J.) assay ABUSCREEN® 100 TEST ONLINE™ KIT (Roche Diagnostic Systems, Inc., Branchburg, N.J. immunoassay) for cannabinoids. Example 20 describes the reagents contained in Roche's commercial Abuscreen® 100 Test Online™ Kit, except that the antibody has been replaced by a novel antibody according to this invention. […] Both tables also report the corresponding results using the monoclonal antibody (11E.2) derived from immunization with a single immunogen (immunogen (VIII)).
(§2) In Table 2, MoAb 11E.2 is an IgA (dimeric) antibody, while MoAB 11A6 is an IgG (monomeric) antibody. In order to agglutinate the microparticles included in the current commercial MIRA assay when 11A6 is used, inclusion of an anti-IgG antibody (commercially available, e.g., from Biodesign Int., Kennebunk, Me. 04043, USA) was required.
(§3) This example describes the reagents contained in Roche's ABUSCREEN® 100 TEST ONLINE™ KIT (Roche Diagnostic Systems, Inc., Branchburg, N.J. immunoassay) for cannabinoids.
(§4) 1. Antibody Reagent: A cannabinoid monoclonal antibody (IgG) with a secondary antibody adjusted in concentration to give the best dynamic standard curve with desired performance characteristics around the assay cutoff. This antibody is diluted in an antibody diluent containing: 50 mM HEPES, 0.1% BSA, 0.5% sodium chloride, 0.09% sodium azide and adjusted to a pH of 6.5.
(§5) 2. Microparticle Reagent: Conjugated cannabinoids derivative microparticle in a buffer containing 10 mM kPi pH 7.5 and 0.09% sodium Azide (supplied in kit).
(§6) 3. Sample Diluent: Buffer containing 50 mM PIPES pH 7.0, 2.5% PVP, 2.0% Sodium Chloride and 0.09% sodium azide (supplied in kit).
(§7) An assay using the above reagents is performed pursuant to the directions stated in the package insert for the commercially available Roche Abuscreen® Online™ 100 test kit for cannabinoids.

MoAb 11A6 = assay: MIRA assay ABUSCREEN 100 TEST ONLINE KIT for cannabinoids, MoAb 11A6 with anti-IgG; type: binding, Murine; conditions: commercial MIRA assay; (II) = 100 by definition; IgG from triple sequential immunization
Text: as §1, §2, §3, §4, §5, §6, §7

Row | SMILES | CROSS REACTIVITY (%) MoAb 11E.2 (MoAb 11E.2) [%] | CROSS REACTIVITY (%) MoAb 11A6 with anti-IgG (MoAb 11A6) [%]
1 | CCCCCc1cc(O)c2c(c1)OC(C)(C)c1ccc(C)cc1-2 [Cannabinol] | 0.6 | 1.6
2 | C=C(C)[C@@H]1CCC(C)=C[C@H]1c1c(O)cc(CCCCC)cc1O [Cannabidiol] | < 0.1 | < 0.1
3 | CCCCCc1cc(O)c2c(c1)OC(C)(C)[C@@H]1C[C@@H](O)C(CO)=C[C@@H]21 [(-)-8β,11-Dihydroxy-Δ^9 -THC (VII), (-)-8β,11-Dihydroxy-Δ^9 -THC] | 14 | 36
4 | CCCCCc1cc(O)c2c(c1)OC(C)(C)[C@@H]1C[C@H](O)C(C)=C[C@@H]21 [(-)-8α-Hydroxy-Δ^9 -THC (VI), (-)-8α-Hydroxy-Δ^9 -THC] | 60 | 71
5 | CCCCCc1cc(O)c2c(c1)OC(C)(C)c1ccc(CO)cc1-2 [11-Hydroxycannabinol] | 16 | 35
6 | CCCCCc1cc(O)c2c(c1)OC(C)(C)[C@@H]1CCC(CO)=C[C@@H]21 [(-)-11-Hydroxy-Δ^9 -THC (V), (-)-11-Hydroxy-Δ^9 -THC] | 23 | 32
7 | CCCCCc1cc(O)c2c(c1)OC(C)(C)[C@@H]1CCC(C)=C[C@@H]21 [(-)-Δ^9 -THC, Δ^9 -tetrahydrocannabinol] | 7.6 | 7.3
8 | CCCCCc1cc(O)c2c(c1)OC(C)(C)[C@@H]1CCC(C(=O)O)=C[C@@H]21 [(-)-Δ^9-11-nor-9-COOH-THC (II), Δ^9-11-nor-9-carboxy-THC] | 100 | 100
